Article PMC12378240, “(+)-/(−)-Ormohenins A and B, two pairs of ormosanine-type enantiomers and their derivatives with neuroprotective activity from Ormosia henryi Prain” (Natural Products and Bioprospecting, 2025)
Where two headings read alike, the source gives them in different places.

Experiments:
PC12 cells = assay: Neuroprotective activity against Aβ25-35 induced PC12 cell death by MTT assay; assay type: cell-based; conditions: for Cell viability: Aβ25-35-induced cell damage in PC12 cells, control = 1.000, model (Aβ25-35) = 0.633, test concentration not given; for EC50: Rattus norvegicus
Protocol: Meanwhile, all isolated compounds were evaluated for their neuroprotective potency against the Aβ25-35 induced PC12 cell death by MTT assay.
A cell viability assay was conducted to test the cytotoxic effects of the compounds on PC12 cells. Meanwhile, the neuroprotective activity of all compounds against the Aβ25-35 induced PC12 cell death by MTT assay. PC12 cells were divided into four groups: normal control, model, positive control (Resveratrol), and isolates intervention groups (1, 10, 20, 40, 60, 80, 100 μmol/L). Detailed experimental procedures and experimental data can be found in the Supporting Information.
Cell culture. […] The cells were maintained at 37°C in a humidified atmosphere containing 5% CO2. The culture medium was replaced every three days, and the cells were passaged when they reached 70% confluency.
Preparation of Aβ25-35. Aβ25-35 was dissolved in sterile double-distilled water to prepare a 2 mM stock solution. The solution was then incubated at 37°C for 7 days to induce aggregation.
MTT assay for cell viability. PC12 cells were divided into four groups: normal control, model, positive control (Resveratrol), and isolates intervention groups (1, 10, 20, 40, 60, 80, 100 μmol/L). The cells were seeded in 96-well plates at an appropriate density with 200 μL medium per well and were cultured for 24 hours. The positive control and intervention groups were pretreated with different concentrations of drug-containing medium for 2 hours, after which 2 μL of Aβ25-35 was added to each well of the model, positive control, and intervention groups for 24 hours. After the treatment, 20 μL of […] MTT solution was added to each well and incubated for 4 hours. The medium was then removed, and 150 μL of DMSO was added to each well. The plate was shaken until the formazan product was completely dissolved. The absorbance was measured at 570 nm using a spectrophotometer.

[1] = molecular target: acetylcholinesterase (AChE) (Homo sapiens, UniProt P22303); assay: biochemical
Chain of acetylcholinesterase (AChE) (P22303 32-614, species assumed): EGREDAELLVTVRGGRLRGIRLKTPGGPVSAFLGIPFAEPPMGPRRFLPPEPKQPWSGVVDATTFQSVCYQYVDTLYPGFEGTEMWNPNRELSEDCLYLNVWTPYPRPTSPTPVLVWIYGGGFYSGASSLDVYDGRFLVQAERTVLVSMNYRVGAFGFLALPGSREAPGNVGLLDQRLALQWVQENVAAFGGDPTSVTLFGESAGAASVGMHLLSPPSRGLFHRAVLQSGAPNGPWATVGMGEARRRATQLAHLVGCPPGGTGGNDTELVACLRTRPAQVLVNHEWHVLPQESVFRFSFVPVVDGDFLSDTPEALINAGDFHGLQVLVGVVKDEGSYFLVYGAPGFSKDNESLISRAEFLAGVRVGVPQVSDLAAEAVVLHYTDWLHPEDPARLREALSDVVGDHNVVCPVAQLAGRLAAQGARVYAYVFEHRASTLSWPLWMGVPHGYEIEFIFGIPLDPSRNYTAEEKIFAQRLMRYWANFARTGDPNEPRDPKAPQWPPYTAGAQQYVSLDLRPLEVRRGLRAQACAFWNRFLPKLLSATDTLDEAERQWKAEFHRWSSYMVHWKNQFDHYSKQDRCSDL
Protocol: The first and the main class of drugs currently used for AD are the AChE inhibitors and are widely used for the symptomatic treatment of mild-moderate AD [2]. All alkaloids were screened toward AChE via improved Ellman’s method (Supporting Information).
The compounds were prepared in DMSO and diluted in buffer solution to different concentrations. In a 96-well plate, 140 μL of PBS (pH = 8) buffer, 20 μL of all the sample solutions were transferred in each well, and 20 μL of 0.2 U/mL AChE solution were added. The mixture was incubated at 37°C for 10 minutes. Subsequently, 10 μL of 3 mM 5,5'-dithiobis-(2-nitrobenzoic acid) (DTNB) and 10 μL of 15 mM acetylthiocholine (ATCl) were added, followed by reaction at 37 °C for 20 minutes. […] Each experimental group was set up with three replicate wells, and huperzine A was used as the positive control.

[2] = PC-12, against Aβ25-35-induced PC12 cell damage, MTT, resveratrol as positive control, read-out: EC50 (μM), neuroprotective effect
[3] = PC-12, read-out: EC50 (μM), neuroprotective effect

Row | Compound | Cell viability (PC12 cells; MTT) | also measured
1 | CC1N2CCCCC2C23CC(CC4CCCN1C42)C1CCCCN1C3 (racemic) [Compound 1, (±)-Ormohenin A] | 0.641 ± 0.009 | –
2 | CC1N2CCCCC2C23CC(CC4CCCN1C42)C1CCCCN1C3 (racemic) [Compound 2, (±)-Ormohenin B] | 0.693 ± 0.024 | –
3 | C1CC[C@H]([C@@]23C[C@H](C[C@H]4CCCN[C@@H]42)[C@@H]2CCCCN2C3)NC1 (racemic) [Compound 5, (±)-18-epiormosanine] | 0.698 ± 0.032 | –
4 | C1CC[C@@H]([C@@]23C[C@H](C[C@H]4CCCN[C@@H]42)[C@@H]2CCCCN2C3)NC1 (racemic) [Compound 6, (±)-ormosanine] | 0.704 ± 0.038 | –
5 | CC1N2CCCCC2C23CC(CC4CCCN1C42)C1CCCCN1C3 (single isomer, unassigned; (-)) [Compound 3, (−)-ormohenin C] | 0.899 ± 0.061 | EC50 (PC12 cells; [2]): 15.5 µM; IC50 ([1]; improved Ellman's method, huperzine A as positive control, read-out: AChE inhibitory activity IC50): 142 ± 19.6 µM
6 | C[C@@H]1N2CCCC[C@H]2[C@@]23C[C@H](C=C4CCCN1[C@@H]42)[C@@H]1CCCCN1C3 [Compound 4, (−)-ormohenin D] | 0.629 ± 0.013 | –
7 | O=C1CC=C[C@@H]2[C@@H]3C[C@H](CN12)[C@H]1CCCCN1C3 [Compound 7, (6R,7S,9S,11R)-4,5-dehydro-α-isolupanine] | 0.650 ± 0.009 | –
8 | O=c1cccc2n1C[C@H]1C[C@@H]2CN2CC=CC[C@@H]12 [Compound 8, (7S,9S,11S)-15,16-dehydroanagyrine] | 0.662 ± 0.041 | –
9 | O=C1CCC[C@@H]2[C@@H]3C[C@H](CN12)[C@@H]1CCCCN1C3 [Compound 9, (+)-lupanine] | 0.974 ± 0.065 | EC50 (PC12 cells; [3]): 10.4 µM
10 | O=c1cccc2n1C[C@H]1C[C@@H]2CN2CCCC[C@@H]12 [Compound 10, (+)-anagyrine] | 0.645 ± 0.011 | –
11 | O=C1CCC[C@@H]2[C@@H]3C[C@H](CN12)[C@H]1CCCCN1C3 [Compound 11, (+)-α-isolupanine] | 0.653 ± 0.027 | –
12 | O=c1cccc2n1C[C@@H]1CNC[C@H]2C1 [Compound 12, (+)-cytisine] | 0.934 ± 0.031 | EC50 (PC12 cells; [3]): 7.99 µM; IC50 [1]: 6.85 ± 1.2 µM
13 | Oc1ccc(/C=C/c2cc(O)cc(O)c2)cc1 [Resveratrol, reference compound] | 0.82 ± 0.039 | EC50 (PC12 cells; [2]): 5.99 µM
